The text below walks through data of ChEMBL document CHEMBL1135342, “Synthesis and evaluation of thymidine-5'-O-monophosphate analogues as inhibitors of Mycobacterium tuberculosis thymidylate kinase” (Bioorg Med Chem Lett, 2002).

The assay concerns the target T1, Thymidylate kinase (Mycobacterium tuberculosis) (UniProt P9WKE1).
T1 sequence (whole entry): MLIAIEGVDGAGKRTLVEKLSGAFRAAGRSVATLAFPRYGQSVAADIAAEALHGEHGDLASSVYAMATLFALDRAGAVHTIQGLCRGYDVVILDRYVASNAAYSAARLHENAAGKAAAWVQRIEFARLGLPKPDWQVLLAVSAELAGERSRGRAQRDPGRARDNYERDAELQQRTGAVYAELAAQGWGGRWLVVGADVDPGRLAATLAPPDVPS
Kind of assay: Enzyme Kinetic constant was determined in the presence of Mycobacterium tuberculosis thymidine monophosphate kinase.
Consider `O=c1[nH]c(=O)n([C@H]2C[C@H](O)[C@@H](COP(=O)(O)O)O2)cc1Br`, for which the Vm (uM min-1 (mg of protein)-1) worked out at 9.8. For `O=c1[nH]c(=O)n([C@H]2C[C@H](O)[C@@H](COP(=O)(O)O)O2)cc1F`, the Vm (uM min-1 (mg of protein)-1) stood at 4.7. As for `O=c1[nH]c(=O)n([C@H]2C[C@H](O)[C@@H](COP(=O)(O)O)O2)cc1I`, the figure is 7.5; as for `Cc1cn([C@H]2C[C@H](F)[C@@H](COP(=O)(O)O)O2)c(=O)[nH]c1=O`, 0.11. As to `Cc1cn(-c2ccc(COP(=O)(O)O)o2)c(=O)[nH]c1=O`, the Vm (uM min-1 (mg of protein)-1) worked out at 0.16. With `Cc1cn([C@H]2C[C@H](O)[C@@H](COP(=O)(O)O)O2)c(=O)[nH]c1=O`, the Vm (uM min-1 (mg of protein)-1) came to 10.6. With `O=c1ccn([C@H]2C[C@H](O)[C@@H](COP(=O)(O)O)O2)c(=O)[nH]1`, the Vm (uM min-1 (mg of protein)-1) turned out to be 3.5.
